Test results published in ChEMBL document CHEMBL3885861, “Open TG-GATES”.
Values joined by “and” are separate entries in the source; they are usually repeats but may differ in a detail not shown here. Identical values can stand only once.

Species on record: Rattus norvegicus
Experiment: Open TG-GATES - Regimen: Single
Type: toxicity, organism-based, Sprague-Dawley
Design: regimen Single, gender Male, age 6 weeks
Conditions: in vivo, po, 0 mg/kg, route gavage, dose level Control; for APTT / Bas / Eos / Fbg / Hb / Ht / Lym / MCH / MCHC / MCV / Mono / Neu / PT / Plat / RBC / Ret / WBC: tissue Blood; for KIDNEY_L / KIDNEY_R / KIDNEY_TOTAL: tissue Kidney; for LIVER: tissue Liver

For `O=C1CN(/N=C/c2ccc([N+](=O)[O-])o2)C(=O)N1` [NITROFURANTOIN], the TERMINAL_BW (3 h) was 220.5 g and 212 g, the APTT (3 h) was 20.2 s and 16.2 s and the Bas (3 h) was 0%. The Eos (3 h) was 0.8% and 1.4%, the Fbg (3 h) was 213.2 mg/dL and 223.8 mg/dL and the Hb (3 h) was 13.3 g/dL and 12.9 g/dL. The Ht (3 h) was 37.7% and 38.8%, the Lym (3 h) was 79.2% and 74% and the MCH (3 h) was 21.5 pg. The MCHC (3 h) was 35.3% and 33.1%, the MCV (3 h) was 60.7 fL and 64.8 fL and the Mono (3 h) was 2% and 5%. The Neu (3 h) was 16.4% and 20.2%, the PT (3 h) was 12.9 s and 12 s and the Plat (3 h) was 112.1 x10_4/uL and 122.4 x10_4/uL. For the same molecule, the RBC (3 h) was 620.6 x10_4/ul and 599.8 x10_4/ul, the Ret (3 h) was 7.4% and 6.9% and the WBC (3 h) was 98.8 x10_2/uL and 73.8 x10_2/uL. The KIDNEY_L (3 h) was 1 g and 0.9 g, the KIDNEY_R (3 h) was 1 g and 0.9 g and the KIDNEY_TOTAL (3 h) was 2 g and 1.9 g. For the same molecule, the LIVER (3 h) was 10.4 g and 9.4 g, the A/G (3 h, tissue Plasma) was 1.7 and 2.2 and the ALP (3 h, tissue Plasma) was 989 IU/L and 1656.4 IU/L. For the same molecule, the ALT (3 h, tissue Plasma) was 38.8 IU/L and 39.2 IU/L, the AST (3 h, tissue Plasma) was 67.6 IU/L and 66.6 IU/L and the BUN (3 h, tissue Plasma) was 11.6 mg/dL and 13 mg/dL. The CRE (3 h, tissue Plasma) was 0.4 mg/dL and 0.3 mg/dL, the Ca (3 h, tissue Plasma) was 10.8 mg/dL and 11.1 mg/dL and the Cl (3 h, tissue Plasma) was 101.6 meq/L and 104 meq/L. For the same molecule, the GLC (3 h, tissue Plasma) was 190.2 mg/dL and 202 mg/dL, the IP (3 h, tissue Plasma) was 8.4 mg/dL and 9.1 mg/dL and the K (3 h, tissue Plasma) was 4 meq/L and 4.5 meq/L. The LDH (3 h, tissue Plasma) was 180.2 IU/L and 74.6 IU/L, the Na (3 h, tissue Plasma) was 140.6 meq/L and 139.2 meq/L and the PL (3 h, tissue Plasma) was 135.4 mg/dL and 141.2 mg/dL. For the same molecule, the RALB (3 h, tissue Plasma) was 3.5 g/dL and 3.8 g/dL, the TC (3 h, tissue Plasma) was 73.4 mg/dL and 84.8 mg/dL and the TG (3 h, tissue Plasma) was 80.2 mg/dL and 53 mg/dL. For the same molecule, the TP (3 h, tissue Plasma) was 5.6 g/dL and 5.5 g/dL, the gamma-GTP (3 h, tissue Plasma) was 1 IU/L and the TERMINAL_BW (6 h) was 219 g and 212.6 g. The APTT (6 h) was 19.5 s and 16.2 s, the Bas (6 h) was 0% and the Eos (6 h) was 1%. For the same molecule, the Fbg (6 h) was 221.8 mg/dL and 224 mg/dL, the Hb (6 h) was 12.9 g/dL and 12.6 g/dL and the Ht (6 h) was 36.6% and 38.1%. The Lym (6 h) was 75.4% and 75.2%, the MCH (6 h) was 21.8 pg and 21 pg and the MCHC (6 h) was 35.4% and 33.1%. The MCV (6 h) was 61.6 fL and 63.7 fL, the Mono (6 h) was 3.4% and 6.6% and the Neu (6 h) was 18.8% and 17.2%. For the same molecule, the PT (6 h) was 12.7 s and 12 s, the Plat (6 h) was 108.3 x10_4/uL and 124 x10_4/uL and the RBC (6 h) was 594.4 x10_4/ul and 598.8 x10_4/ul. For the same molecule, the Ret (6 h) was 7.9% and 7.7%, the WBC (6 h) was 107.6 x10_2/uL and 78.5 x10_2/uL and the KIDNEY_L (6 h) was 1 g and 0.9 g. For the same molecule, the KIDNEY_R (6 h) was 1 g, the KIDNEY_TOTAL (6 h) was 2 g and 1.9 g and the LIVER (6 h) was 9.8 g. For the same molecule, the A/G (6 h, tissue Plasma) was 1.5 and 2.3, the ALP (6 h, tissue Plasma) was 798.6 IU/L and 1341.4 IU/L and the ALT (6 h, tissue Plasma) was 34.4 IU/L and 35.2 IU/L. For the same molecule, the AST (6 h, tissue Plasma) was 61 IU/L and 65.8 IU/L, the BUN (6 h, tissue Plasma) was 12 mg/dL and 14.8 mg/dL and the CRE (6 h, tissue Plasma) was 0.4 mg/dL. For the same molecule, the Ca (6 h, tissue Plasma) was 10.8 mg/dL and 10.9 mg/dL, the Cl (6 h, tissue Plasma) was 102.4 meq/L and 103.8 meq/L and the GLC (6 h, tissue Plasma) was 185.8 mg/dL and 193.2 mg/dL. For the same molecule, the IP (6 h, tissue Plasma) was 8.6 mg/dL and 7.9 mg/dL, the K (6 h, tissue Plasma) was 4.2 meq/L and 4.6 meq/L and the LDH (6 h, tissue Plasma) was 177 IU/L and 74.4 IU/L. For the same molecule, the Na (6 h, tissue Plasma) was 140.4 meq/L and 137.2 meq/L, the PL (6 h, tissue Plasma) was 137.2 mg/dL and 147 mg/dL and the RALB (6 h, tissue Plasma) was 3.2 g/dL and 3.8 g/dL. The TC (6 h, tissue Plasma) was 80 mg/dL and 86 mg/dL, the TG (6 h, tissue Plasma) was 54 mg/dL and 118.6 mg/dL and the TP (6 h, tissue Plasma) was 5.4 g/dL. For the same molecule, the gamma-GTP (6 h, tissue Plasma) was 1 IU/L and 0.4 IU/L, the TERMINAL_BW (9 h) was 214.5 g and 212 g and the APTT (9 h) was 19.4 s and 16 s. The Bas (9 h) was 0%, the Eos (9 h) was 1% and the Fbg (9 h) was 216.6 mg/dL and 235.2 mg/dL. The Hb (9 h) was 13.5 g/dL and 12.9 g/dL, the Ht (9 h) was 38.4% and 39.4% and the Lym (9 h) was 77.2% and 72%. For the same molecule, the MCH (9 h) was 21.4 pg and 21.3 pg, the MCHC (9 h) was 35.3% and 32.7% and the MCV (9 h) was 60.8 fL and 64.9 fL. The Mono (9 h) was 2.8% and 8.8%, the Neu (9 h) was 18.2% and 18.4% and the PT (9 h) was 12.7 s and 11.8 s. The Plat (9 h) was 113.7 x10_4/uL and 107.9 x10_4/uL, the RBC (9 h) was 633.4 x10_4/ul and 606 x10_4/ul and the Ret (9 h) was 7.1%. The WBC (9 h) was 86.1 x10_2/uL and 82.1 x10_2/uL, the KIDNEY_L (9 h) was 1 g and 0.9 g and the KIDNEY_R (9 h) was 1 g and 0.9 g. For the same molecule, the KIDNEY_TOTAL (9 h) was 2 g and 1.8 g, the LIVER (9 h) was 9.3 g and 10.4 g and the A/G (9 h, tissue Plasma) was 1.6 and 2.2. For the same molecule, the ALP (9 h, tissue Plasma) was 901.6 IU/L and 1778 IU/L, the ALT (9 h, tissue Plasma) was 34.4 IU/L and 40.2 IU/L and the AST (9 h, tissue Plasma) was 62.2 IU/L and 71 IU/L. The BUN (9 h, tissue Plasma) was 11.6 mg/dL and 14.6 mg/dL, the CRE (9 h, tissue Plasma) was 0.4 mg/dL and 0.3 mg/dL and the Ca (9 h, tissue Plasma) was 10.6 mg/dL and 11.3 mg/dL. The Cl (9 h, tissue Plasma) was 102.2 meq/L and 104.4 meq/L, the GLC (9 h, tissue Plasma) was 194 mg/dL and 183.2 mg/dL and the IP (9 h, tissue Plasma) was 9.3 mg/dL and 7.7 mg/dL. The K (9 h, tissue Plasma) was 4 meq/L and 4.9 meq/L, the LDH (9 h, tissue Plasma) was 211.8 IU/L and 71.2 IU/L and the Na (9 h, tissue Plasma) was 140.2 meq/L and 137.2 meq/L. The PL (9 h, tissue Plasma) was 143.8 mg/dL and 168 mg/dL, the RALB (9 h, tissue Plasma) was 3.3 g/dL and 3.9 g/dL and the TBIL (9 h, tissue Plasma) was 0.1 mg/dL and 0.038 mg/dL. The TC (9 h, tissue Plasma) was 78.8 mg/dL and 100.6 mg/dL, the TG (9 h, tissue Plasma) was 77.2 mg/dL and 109.6 mg/dL and the TP (9 h, tissue Plasma) was 5.3 g/dL and 5.6 g/dL. For the same molecule, the gamma-GTP (9 h, tissue Plasma) was 0.6 IU/L and 1 IU/L, the TERMINAL_BW (24 h) was 232.8 g and 218.4 g and the APTT (24 h) was 19 s and 15.6 s. The Bas (24 h) was 0%, the Eos (24 h) was 1% and the Fbg (24 h) was 219.8 mg/dL and 239.4 mg/dL. For the same molecule, the Hb (24 h) was 13.6 g/dL and 13.4 g/dL, the Ht (24 h) was 39.2% and 40.4% and the Lym (24 h) was 75.2% and 73%. The MCH (24 h) was 22 pg and 21.7 pg, the MCHC (24 h) was 34.9% and 33.3% and the MCV (24 h) was 63.2 fL and 65.2 fL. The Mono (24 h) was 3% and 10.2%, the Neu (24 h) was 19.6% and 15.6% and the PT (24 h) was 12.5 s and 11.7 s. The Plat (24 h) was 119.5 x10_4/uL and 120.8 x10_4/uL, the RBC (24 h) was 620.4 x10_4/ul and 619 x10_4/ul and the Ret (24 h) was 7% and 6.5%. The WBC (24 h) was 95.9 x10_2/uL and 73.9 x10_2/uL, the KIDNEY_L (24 h) was 1 g and the KIDNEY_R (24 h) was 1.1 g and 1 g. The KIDNEY_TOTAL (24 h) was 2.1 g and 2 g, the LIVER (24 h) was 11.1 g and 10.1 g and the A/G (24 h, tissue Plasma) was 1.4 and 2.4. The ALP (24 h, tissue Plasma) was 1022.4 IU/L and 1561.4 IU/L.
